Test results taken from PMC2820250 (Journal of the American Chemical Society, 2009).
Structures can show the parent of a compound that is named as a salt.

Target: recombinant human BACE-1 (Homo sapiens, UniProt P56817)
Test: BACE-1 FRET peptide cleavage assay
Assay type: biochemical
Conditions: for IC50, inhibition of cleavage of FRET peptide by BACE-1: FRET peptide with Swedish variant, pH 4.5, 2 h, 25 °C, triplicate; for inhibitory activity against BACE-1 cleavage of FRET peptide, in words: qualitative statement

recombinant human BACE-1, sequence (P56817 46-501): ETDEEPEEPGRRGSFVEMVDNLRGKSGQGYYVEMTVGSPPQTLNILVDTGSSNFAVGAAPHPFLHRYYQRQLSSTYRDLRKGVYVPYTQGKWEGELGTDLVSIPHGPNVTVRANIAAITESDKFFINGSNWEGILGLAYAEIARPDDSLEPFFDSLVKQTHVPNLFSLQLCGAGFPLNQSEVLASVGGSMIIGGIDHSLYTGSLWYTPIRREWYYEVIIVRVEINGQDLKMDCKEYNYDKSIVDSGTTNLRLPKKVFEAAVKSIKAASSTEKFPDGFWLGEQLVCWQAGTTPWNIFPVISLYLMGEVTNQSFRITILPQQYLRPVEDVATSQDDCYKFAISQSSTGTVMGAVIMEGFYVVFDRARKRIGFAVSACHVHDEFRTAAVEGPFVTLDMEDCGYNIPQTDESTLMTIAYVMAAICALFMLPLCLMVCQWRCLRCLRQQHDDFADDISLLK

Row | Compound | IC50, inhibition of cleavage of FRET peptide by BACE-1 | inhibitory activity against BACE-1 cleavage of FRET peptide, in words | reduction of potency relative to compound 83 (acetamido moieties instead of N-sulfates)
1 | NCCCCCO[C@H]1O[C@H](COS(=O)(=O)[O-])[C@@H](O[C@@H]2O[C@H](C(=O)[O-])[C@@H](O[C@H]3O[C@H](COS(=O)(=O)[O-])[C@@H](O[C@@H]4O[C@@H](C(=O)[O-])[C@@H](O)[C@H](O)[C@H]4O)[C@H](O)[C@H]3NS(=O)(=O)[O-])[C@H](O)[C@H]2O)[C@H](O)[C@H]1NS(=O)(=O)[O-].[Na+].[Na+].[Na+].[Na+].[Na+].[Na+] [Compound 81, 5-aminopentyl [(L-α-idopyranosyluronate)-(1→4)-O-(2-deoxy-2-sulfoamino-6-O-sulfonate-α-D-glucopyranoside)-(1→4)-O-(β-D-glucopyranosyluronate)]-(1→4)-2-deoxy-2-sulfoamino-6-O-sulfonate-α-D-glucopyranoside hexasodium salt] | 290 µg/ml |  | 
2 | NCCCCCO[C@H]1O[C@H](COS(=O)(=O)[O-])[C@@H](O[C@@H]2O[C@@H](C(=O)[O-])[C@@H](O[C@H]3O[C@H](COS(=O)(=O)[O-])[C@@H](O[C@@H]4O[C@H](C(=O)[O-])[C@@H](O)[C@H](O)[C@H]4O)[C@H](O)[C@H]3NS(=O)(=O)[O-])[C@H](O)[C@H]2O)[C@H](O)[C@H]1NS(=O)(=O)[O-].[Na+].[Na+].[Na+].[Na+].[Na+].[Na+] [Compound 79] | 240 µg/ml |  | 
3 | NCCCCCO[C@H]1O[C@H](COS(=O)(=O)[O-])[C@@H](O[C@@H]2O[C@H](C(=O)[O-])[C@@H](O[C@H]3O[C@H](COS(=O)(=O)[O-])[C@@H](O[C@@H]4O[C@H](C(=O)[O-])[C@@H](O)[C@H](O)[C@H]4O)[C@H](O)[C@H]3NS(=O)(=O)[O-])[C@H](O)[C@H]2O)[C@H](O)[C@H]1NS(=O)(=O)[O-].[Na+].[Na+].[Na+].[Na+].[Na+].[Na+] [Compound 77] | 97 µg/ml | modest activity | 
4 | 5-Aminopentyl [(β-D-glucopyranosyluronate)-(1→4)-O-(2-deoxy-2-sulfamino-6-O-sulfonate-α-D-glucopyranoside)-(1→4)-O-(2-O-sulfonate-α-L-idopyranosyluronate)-(1→4)-2-deoxy-2-sulfoamino-6-O-sulfonate-α-D-glucopyranoside heptasodium salt [Compound 86] | >300 µg/ml |  | 
5 | 5-Aminopentyl [(α-L-idopyranosyluronate)-(1→4)-O-(2-acetamido-2-deoxy-6-O-sulfonate-α-D-glucopyranoside)-(1→4)-O-(2-O-sulfonato-α-L-idopyranosyl-uronate)]-(1→4)-2-deoxy-2-acetamido-6-O-sulfonate-α-D-glucopyranoside penta sodium salt [Compound 84] | >300 µg/ml |  | 
6 | CC(=O)N[C@H]1[C@@H](O[C@H]2[C@H](O)[C@@H](O)[C@H](O[C@H]3[C@H](O)[C@@H](NC(C)=O)[C@@H](OCCCCCN)O[C@@H]3COS(=O)(=O)[O-])O[C@@H]2C(=O)[O-])O[C@H](COS(=O)(=O)[O-])[C@@H](O[C@@H]2O[C@@H](C(=O)[O-])[C@@H](O)[C@H](O)[C@H]2O)[C@@H]1O.[Na+].[Na+].[Na+].[Na+] [Compound 80] | 104 µg/ml |  | 
7 | CC(=O)N[C@H]1[C@@H](O[C@H]2[C@H](O)[C@@H](O)[C@H](O[C@H]3[C@H](O)[C@@H](NC(C)=O)[C@@H](OCCCCCN)O[C@@H]3COS(=O)(=O)[O-])O[C@H]2C(=O)[O-])O[C@H](COS(=O)(=O)[O-])[C@@H](O[C@@H]2O[C@H](C(=O)[O-])[C@@H](O)[C@H](O)[C@H]2O)[C@@H]1O.[Na+].[Na+].[Na+].[Na+] [Compound 78] | >300 µg/ml |  | 
8 | CC(=O)N[C@H]1[C@@H](O[C@H]2[C@H](O)[C@@H](O)[C@H](O[C@H]3[C@H](O)[C@@H](NC(C)=O)[C@@H](OCCCCCN)O[C@@H]3COS(=O)(=O)[O-])O[C@H]2C(=O)[O-])O[C@H](COS(=O)(=O)[O-])[C@@H](O[C@@H]2O[C@@H](C(=O)[O-])[C@@H](O)[C@H](O)[C@H]2O)[C@@H]1O.[Na+].[Na+].[Na+].[Na+] [Compound 82] | 35 µg/ml | modest activity | 10 fold
9 | 5-Aminopentyl [(β-D-glucopyranosyluronate)-(1→4)-O-(2-acetamido-2-deoxy-6-O-sulfonato- α-D-glucopyranoside)-(1→4)-O-(2-O-sulfonato-α-L-idopyranosyluronate)]-(1→4)-2-deoxy-2-acetamido-6-O-sulfonate-α-D-glucopyranoside penta sodium salt [Compound 85] | 167 µg/ml |  | 
10 | NCCCCCO[C@H]1O[C@H](COS(=O)(=O)[O-])[C@@H](O[C@@H]2O[C@@H](C(=O)[O-])[C@@H](O[C@H]3O[C@H](COS(=O)(=O)[O-])[C@@H](O[C@@H]4O[C@@H](C(=O)[O-])[C@@H](O)[C@H](O)[C@H]4O)[C@H](O)[C@H]3NS(=O)(=O)[O-])[C@H](O)[C@H]2O)[C@H](O)[C@H]1NS(=O)(=O)[O-].[Na+].[Na+].[Na+].[Na+].[Na+].[Na+] [Compound 83] | 4.6 µg/ml | relatively high potency | 
11 | NCCCCCOC1OC(COS(=O)(=O)O)C(OC2OC(C(=O)O)C(OC3OC(COS(=O)(=O)O)C(OC4OC(C(=O)O)C(OC5OC(COS(=O)(=O)O)C(OC6OC(C(=O)O)C(O)C(O)C6O)C(O)C5NS(=O)(=O)O)C(O)C4O)C(O)C3NS(=O)(=O)O)C(O)C2O)C(O)C1NS(=O)(=O)O [Compound 69, 5-aminopentyl [(β-D-glucopyranosyluronate)-(1→4)-(2-deoxy-2-sulfoamino-6-O-sulfonato-α-D-glucopyranoside)-(1→4)-O-(α-L-idopyranosyluronate)-(1→4)-O-(2-deoxy-2-sulfoamino-6-O-sulfanate-α-D-glucopyranoside)-(1→4)-(β-D-glucopyranosyluronate)]-(1→4)-O-2-deoxy-N-sulfoamino-6-O-sulfonate-α-D-glucopyranoside nonasodium salt] | 64 µg/ml |  | 
12 | CC(=O)N[C@H]1[C@@H](O[C@H]2[C@H](O)[C@@H](O)[C@H](O[C@H]3[C@H](O)[C@@H](NC(C)=O)[C@@H](OCCCCCN)O[C@@H]3COS(=O)(=O)[O-])O[C@@H]2C(=O)[O-])O[C@H](COS(=O)(=O)[O-])[C@@H](O[C@@H]2O[C@H](C(=O)[O-])[C@@H](O)[C@H](O)[C@H]2O)[C@@H]1O.[Na+].[Na+].[Na+].[Na+] [Compound 76] | 39 µg/ml | modest activity | 
